Test results reported in patent US20240246940A1, “HETEROARYL DERIVATIVE COMPOUND AND USE THEREOF” (VORONOI INC., priority 2021, published 2024).
Read-outs that look alike come from different tables or passages of the source.

Columns and labels:
[1] = test system: SK-BR-3 cells (HER2 overexpressing cell line); test: SK-BR-3 cell proliferation inhibitory activity (CellTiter-Glo, 120 hours); type: cell-based
Procedure, shortened: (§1)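 Three independent repeats measured growth inhibition across 11 concentrations. The top final concentration was 10 μM for SK-BR-3 and BT-474, 5 μM for N-87 and 45 μM for HaCaT. Growth relative to control, read by luminescence, yielded GI50.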

[2] = test system: HaCaT cells (EGFR expressing cell line); test: HaCaT cell proliferation inhibitory activity (CellTiter-Glo, 72 hours); type: cell-based
Procedure, shortened: as §1

Row | GI50 ([1]; Homo sapiens) [nM] | GI50 [1] [nM] | SMILES | GI50 ([2]; Homo sapiens) [nM] | GI50 [2] [nM]
1 | 150 to 1000 | – | C=CC(=O)N1CC(Oc2cc3c(Nc4cc(-c5ccn6ncnc6c5)ccc4OCC)ncnc3cc2OC)C1 [Example 56, 1-(3-((4-((5-([1,2,4]triazolo [1,5-a]pyridin-7-yl)-2-ethoxyphenyl)amino)-7-methoxy-quinazolin-6-yl)oxy)azetidin-1-yl)prop-2-en-1-one] | > 1000 | –
2 | 150 to 1000 | – | C=CC(=O)N1CC(Oc2cc3c(Nc4cc(-c5ccc6occc6c5)ccc4OCC)ncnc3cc2OC)C1 [Example 57, 1-(3-((4-((5-(benzofuran-5-yl)-2-ethoxyphenyl)amino)-7-methoxy-quinazolin-6-yl)oxy)azetidin-1-yl)prop-2-en-1-one] | 150 to 1000 | –
3 | 150 to 1000 | – | C=CC(=O)N1CCC(Oc2cc3c(Nc4cc(-c5cccnc5)ccc4OC)ncnc3cc2OC)C1 (centres unmarked) [Example 59, 1-(3-((7-methoxy-4-((2-methoxy-5-(pyridin-3-yl)phenyl)amino)quinazolin-6-yl)oxy)pyrrolidin-1-yl)prop-2-en-1-one] | > 1000 | –
4 | ≤ 150 | – | C=CC(=O)N1CCC(Oc2cc3c(Nc4cc(-c5ccc(F)cc5)ccc4OC)ncnc3cc2OC)C1 (centres unmarked) [Example 60, 1-(3-((4-((4′-fluoro-4-methoxy-[1,1′-biphenyl]-3-yl)amino)-7-methoxy-quinazolin-6-yl)oxy)pyrrolidin-1-yl)prop-2-en-1-one] | 150 to 1000 | –
5 | 150 to 1000 | – | C=CC(=O)N1CCC(Oc2cc3c(Nc4cc(-c5ccnn5C)ccc4OC)ncnc3cc2OC)C1 (centres unmarked) [Example 61, 1-(3-((7-methoxy-4-((2-methoxy-5-(1-methyl-1H-pyrazol-5-yl)phenyl)amino)quinazolin-6-yl)oxy)pyrrolidin-1-yl)prop-2-en-1-one] | > 1000 | –
6 | 150 to 1000 | – | C=CC(=O)N1CCC(Oc2cc3c(Nc4cc(-c5cccnc5)ccc4OC)ncnc3cc2OC)CC1 [Example 66, 1-(4-((7-methoxy-4-((2-methoxy-5-(pyridin-3-yl)phenyl)amino)quinazolin-6-yl)oxy)piperidin-1-yl)prop-2-en-1-one] | 150 to 1000 | –
7 | 150 to 1000 | – | C=CC(=O)N1CCC(Oc2cc3c(Nc4cc(-c5cccn6ccnc56)ccc4OC)ncnc3cc2OC)CC1 [Example 70, 1-(4-((4-((5-(imidazo[1,2-a]pyridin-8-yl)-2-methoxyphenyl)amino)-7-methoxy-quinazolin-6-yl)oxy)piperidin-1-yl)prop-2-en-1-one] | > 1000 | –
8 | 150 to 1000 | – | C=CC(=O)N1CCC(Oc2cc3c(Nc4cc(-c5ccc6occc6c5)ccc4OC)ncnc3cc2OC)CC1 [Example 71, 1-(4-((4-((5-(benzofuran-5-yl)-2-methoxyphenyl)amino)-7-methoxy-quinazolin-6-yl)oxy)piperidin-1-yl)prop-2-en-1-one] | > 1000 | –
9 | ≤ 150 | – | C=CC(=O)N1CCC(Oc2cc3c(Nc4cc(-c5coc6ccccc56)ccc4OC)ncnc3cc2OC)CC1 [Example 73, 1-(4-((4-((5-(benzofuran-3-yl)-2-methoxyphenyl)amino)-7-methoxy-quinazolin-6-yl)oxy)piperidin-1-yl)prop-2-en-1-one] | ≤ 150 | –
10 | 150 to 1000 | – | C=CC(=O)N1CCC(Oc2cc3c(Nc4cc(-c5ccnn5C)ccc4OC)ncnc3cc2OC)CC1 [Example 75, 1-(4-((7-methoxy-4-((2-methoxy-5-(1-methyl-1H-pyrazol-5-yl)phenyl)amino)quinazolin-6-yl)oxy)piperidin-1-yl)prop-2-en-1-one] | > 1000 | –
11 | 150 to 1000 | – | C=CC(=O)N1CCC(Oc2cc3c(Nc4cc(-c5cncs5)ccc4OC)ncnc3cc2OC)CC1 [Example 77, 1-(4-((7-methoxy-4-((2-methoxy-5-(thiazol-5-yl)phenyl)amino)quinazolin-6-yl)oxy)piperidin-1-yl)prop-2-en-1-one] | 150 to 1000 | –
12 | ≤ 150 | – | C=CC(=O)N1CCC(Oc2cc3c(Nc4cc(-c5sccc5C)ccc4OC)ncnc3cc2OC)CC1 [Example 82, 1-(4-((7-methoxy-4-((2-methoxy-5-(3-methylthiophen-2-yl)phenyl)amino)quinazolin-6-yl)oxy)piperidin-1-yl)prop-2-en-1-one] | ≤ 150 | –
13 | 150 to 1000 | – | C=CC(=O)N1CCC(Oc2cc3c(Nc4cc(-c5cc(C)cs5)ccc4OC)ncnc3cc2OC)CC1 [Example 83, 1-(4-((7-methoxy-4-((2-methoxy-5-(4-methylthiophen-2-yl)phenyl)amino)quinazolin-6-yl)oxy)piperidin-1-yl)prop-2-en-1-one] | 150 to 1000 | –
14 | ≤ 150 | – | C=CC(=O)N1CCC(Oc2cc3c(Nc4cc(-c5ccoc5C)ccc4OC)ncnc3cc2OC)CC1 [Example 84, 1-(4-((7-methoxy-4-((2-methoxy-5-(2-methylfuran-3-yl)phenyl)amino)quinazolin-6-yl)oxy)piperidin-1-yl)prop-2-en-1-one] | ≤ 150 | –
15 | ≤ 150 | – | C=CC(=O)N1CCC(Oc2cc3c(Nc4cc(-c5cnoc5)ccc4OC)ncnc3cc2OC)CC1 [Example 85, 1-(4-((4-((5-(isoxazol-4-yl)-2-methoxyphenyl)amino)-7-methoxy-quinazolin-6-yl)oxy)piperidin-1-yl)prop-2-en-1-one] | ≤ 150 | –
16 | 150 to 1000 | – | C=CC(=O)N1CCC(Oc2cc3c(Nc4cc(-c5cccs5)c(C)cc4OC)ncnc3cc2OC)CC1 [Example 95, 1-(4-((7-methoxy-4-((2-methoxy-4-methyl-5-(thiophen-2-yl))amino)quinazolin-6-yl)oxy)piperidin-1-yl)prop-2-en-1-one] | ≤ 150 | –
17 | 150 to 1000 | – | C=CC(=O)N1CCC(Oc2cc3c(Nc4cc(-c5ccco5)c(C)cc4OC)ncnc3cc2OC)CC1 [Example 96, 1-(4-((4-((5-(furan-2-yl)-2-methoxy-4-methylphenyl)amino)-7-methoxy-quinazolin-6-yl)oxy)piperidin-1-yl)prop-2-en-1-one] | ≤ 150 | –
18 | ≤ 150 | – | C=CC(=O)N1CCC(Oc2cc3c(Nc4cc(-c5ccco5)cnc4OC)ncnc3cc2OC)CC1 [Example 104, 1-(4-((4-((5-(furan-2-yl)-2-methoxy-pyridin-3-yl)amino)-7-methoxy-quinazolin-6-yl)oxy)piperidin-1-yl)prop-2-en-1-one] | ≤ 150 | –
19 | ≤ 150 | – | C=CC(=O)N1CCC(Oc2cc3c(Nc4cc(-c5ccco5)ncc4OC)ncnc3cc2OC)CC1 [Example 105, 1-(4-((4-((2-(furan-2-yl)-5-methoxypyridin-4-yl)amino)-7-methoxy-quinazolin-6-yl)oxy)piperidin-1-yl)prop-2-en-1-one] | ≤ 150 | –
20 | ≤ 150 | – | C=CC(=O)N1CCC(Oc2cc3c(Nc4cc(-c5ccco5)ccc4OC)ncnc3cc2OC)C(F)(F)C1 (centres unmarked) [Example 111, 1-(3,3-difluoro-4-((4-((5-(furan-2-yl)-2-methoxyphenyl)amino)-7-methoxy-quinazolin-6-yl)oxy)piperidin-1-yl)prop-2-en-1-one] | ≤ 150 | –
21 | – | 150 to 1000 | C=CC(=O)N1CCC(Oc2cc3c(Nc4cc(-c5ccco5)ccc4OC)ncnc3cc2OC)CC1C(F)(F)F (centres unmarked) [Example 114, 1-(4-((4-((5-(furan-2-yl)-2-methoxyphenyl)amino)-7-methoxy-quinazolin-6-yl)oxy)-2-(trifluoro-methyl)piperidin-1-yl)prop-2-en-1-one] | – | ≤ 150
22 | 150 to 1000 | – | C=CC(=O)N1CC2CC1CC2Oc1cc2c(Nc3cc(-c4ccco4)ccc3OC)ncnc2cc1OC (centres unmarked) [Example 115, 1-(5-((4-((5-(furan-2-yl)-2-methoxyphenyl)amino)-7-methoxy-quinazolin-6-yl)oxy)-2-azabicyclo[2. 2.1]heptan-2-yl)prop-2-en-1-one] | ≤ 150 | –
23 | 150 to 1000 | – | C=CC(=O)N1CCC(Oc2cc3c(Nc4cc(-c5ccco5)ccc4OC(F)(F)F)ncnc3cc2OC)CC1 [Example 116, 1-(4-((4-((5-(furan-2-yl)-2-(trifluoro-methoxy)phenyl)amino)-7-methoxy-quinazolin-6-yl)oxy)piperidin-1-yl)prop-2-en-1-one] | ≤ 150 | –
24 | ≤ 150 | – | C=CC(=O)N1CCC(Oc2cc3c(Nc4cc(-c5cccs5)ccc4OCC)ncnc3cc2OC)CC1 [Example 117, 1-(4-((4-((2-ethoxy-5-(thiophen-2-yl)phenyl)amino)-7-methoxy-quinazolin-6-yl)oxy)piperidin-1-yl)prop-2-en-1-one] | ≤ 150 | –
25 | ≤ 150 | – | C=CC(=O)N1CCC(Oc2cc3c(Nc4cc(-c5ccco5)ccc4OCC)ncnc3cc2OC)CC1 [Example 118, 1-(4-((4-((2-ethoxy-5-(furan-2-yl)phenyl)amino)-7-methoxy-quinazolin-6-yl)oxy)piperidin-1-yl)prop-2-en-1-one] | ≤ 150 | –
26 | 150 to 1000 | – | COc1ccc(-c2cccs2)cc1Nc1ncnc2cc(OC)c(OC3CCN(C(=O)/C=C/CN(C)C)CC3)cc12 [Example 119, (E)-4-(dimethylamino) 1-(4-((7-methoxy-4-((2-methoxy-5-(thiophen-2-yl)phenyl)amino)quinazolin-6-yl)oxy)piperidin-1-yl)but-2-en-1-one] | ≤ 150 | –
27 | > 1000 | – | C=C(CN(C)C)C(=O)N1CCC(Oc2cc3c(Nc4cc(-c5ccco5)ccc4OC)ncnc3cc2OC)CC1 [Example 121, 2-((dimethylamino)methyl)-1-(4-((4-((5-(furan-2-yl)-2-methoxyphenyl)amino)-7-methoxy-quinazolin-6-yl)oxy)piperidin-1-yl)prop-2-en-1-one] | ≤ 150 | –
28 | 150 to 1000 | – | C=CC(=O)N1CCC(Oc2cc3c(Nc4cc(-c5ccco5)ccc4OC)ccnc3cc2OC)CC1 [Example 125, 1-(4-((4-((5-(furan-2-yl)-2-methoxyphenyl)amino)-7-methoxy-quinolin-6-yl)oxy)piperidin-1-yl)prop-2-en-1-one] | 150 to 1000 | –
